Results taken from patent US20230220416A1, “NOVEL TR[…] AND USES THEREOF” (priority 2020, published 2023).

Columns and labels:
human CD34-positive HSC = assay: Lentiviral SIN vector transduction of CD34-positive HSC at MOI 1, 3 or 5 in X-Vivo 20, VCN by qPCR (Example 1); conditions: each with 4 μg/mL protamine sulfate, VCN with protamine sulfate only set as 1, 1 μg/mL Amphotericin B, 1 mg/ml Lentiboost
From the text: This vector encodes human p47phox cDNA under control of the miR223 internal promoter. Cells were transduced in presence of protamine sulfate only (resulting VCN set to 100%), or in presence of protamine sulfate (PS) plus one or more compounds tested for transduction enhancer activity. After 10 to 12 days post transduction, DNA from transduced cells was isolated, and VCNs were quantified by qPCR. The increase in VCN relative to the VCN achieved upon transduction in presence of protamine sulfate only was expressed as “fold induction rel. to PS”.
Thawed cells from healthy donors were cultured in 96 well plates comprising X-Vivo 20 medium supplemented with 1% human serum albumin, 300 μg/ml stem cell factor (SCF), 300 μg/ml fins like tyrosine kinase 3 (FLT-3) ligand (Flt3-lig) and 100 μng/ml Thrombopoietin (TPO) at a density of 0.5 E6 cells/cm^2, and at a concentration of 1E6 cells/ml for 22h, optionally followed by 2h of pre-stimulation with below mentioned compounds. Afterwards, cells were incubated for transduction with the lentiviral SIN gene therapy vector for 12 h in presence of the compounds indicated below and protamine sulfate. After the 12 h transduction period, the medium was exchanged by above mentioned medium, and cells were transferred to 12-well plates in which they were cultured in a volume of 1 ml for 5 to 7 days depending on cell density. Thereafter, medium was exchanged by fresh medium, and cells were cultured in 2 ml for another 6 days. At day 12 post transduction, DNA was isolated, and vector copy number (VCN) was quantified by qPCR. All experiments were conducted in triplicates. For negative control, a triplicate of non-transduced cells was cultured as described. To determine the baseline of transduction efficacy in presence of only protamine sulfate, cells were incubated with MOI 1, MOI 3 or MOI 5 of the lentiviral SIN vector in presence of 4 μg/mL protamine sulfate.
After 10 to 12 days, non-integrated pro-viral DNA was diluted out due to the proliferation of cells in the plate and VCNs were quantified thereafter by qPCR. Every condition was tested in triplicates and the average of VCNs of triplicates for each individual condition was calculated. To evaluate the transduction enhancement activity of the tested compounds, average VCNs of cells transduced in the presence of protamine sulfate was set as 1, and enhancement of transduction was expressed as X-fold increase relative to transduction in the presence of protamine sulfate only.

target cell = type: cell-based; conditions: for transduction efficiency of a target cell, single enhancer (result in words): Amphotericin B 0.5-1 μg/mL, Silibinin 1 to 5 μM, Midostaurin 100 to 400 nM, Nystatin 100 μM, Natamycin 3 μM, Everolimus 1 μM, deoxyribonucleosides 0.3-2.5 mM, PEG-PLA-PEG 10 μg/mL, PEG-PCL-PEG 10 μg/mL, Resveratrol 5 μM, Prostaglandin E2 10 μM, Poloxamer synperonic F108 0.5-2 mg/mL, DMSO 1% (v/v), protamine salts 4 μg/mL; for suitability of approved therapeutic compounds as transduction enhancers (result in words): no concentration stated
From the text: The efficiency of a transduction experiment may be determined as known in the art. Preferably, transduction efficiency may be measured by determining the vector copy number (VCN) in a single cell after a transduction experiment or by measuring the average VCN in a population of cells after a transduction experiment. “Vector copy number” or “VCN” refers to the number of copies of a vector, or portion thereof, in a cell's genome. The average VCN may be determined from a population of cells or from individual cell colonies. Exemplary methods for determining VCN include any form of polymerase chain reaction (PCR), such as qPCR or digital droplet PCR, and flow cytometry. […] 479-487 or as described in Examples 1 or 5.
Several transduction enhancers and combinations of transduction enhancers reported herein result in an increase in transduction efficiency. An “increase in transduction efficiency” refers to an increase in VCN upon transduction of a cell population by a gene therapy vector in presence of a transduction enhancer compared to the absence of a transduction enhancer.

Human CD34+HSC = assay: Lentiviral SIN vector transduction of CD34+ HSC at MOI 20 with or without 1% DMSO, VCN; type: cell-based; conditions: 2 h pre-stimulation and 16 h incubation, X-Vivo 20, VCN without DMSO 0.915
Description: Cells were transduced in the absence and presence of 1% DMSO.
The transduction process comprised a 2 h pre-stimulation period in presence of 1% DMSO, followed by 16 h incubation of pre-stimulated cells with the gene therapy vector with an MOI 20 in presence of 1% DMSO.

[1] = MOI of 1, 5 μM Silibinin, 5 μM Resveratrol, 1 μM Everolimus, 0,4 μM Midostaurin, 100 μM Nystatin, 3 μM Natamycin

Compound | increase in the efficiency of lentiviral transduction (VCN), fold induction rel. to PS (human CD34-positive HSC; [1]) | increase in the efficiency of lentiviral transduction (VCN), fold induction rel. to PS (human CD34-positive HSC; MOI of 3, 1 μM Everolimus) | transduction efficiency of a target cell, single enhancer (result in words) (target cell) | suitability of approved therapeutic compounds as transduction enhancers (result in words) (target cell) | vector copy number (VCN) (Human CD34+HSC)
C[C@@H]1[C@H](O)[C@@H](C)/C=C/C=C/C=C/C=C/C=C/C=C/C=C/[C@H](O[C@@H]2O[C@H](C)[C@@H](O)[C@H](N)[C@@H]2O)C[C@@H]2O[C@](O)(C[C@@H](O)C[C@@H](O)[C@H](O)CC[C@@H](O)C[C@@H](O)CC(=O)O[C@H]1C)C[C@H](O)[C@H]2C(=O)O [Amphotericin B] | (factor 3) fold | (factor 2.2) fold | enhances the transduction efficiency | efficient transduction enhancers | –
C[C@@H]1[C@H](O)[C@@H](C)/C=C/C=C/CC/C=C/C=C/C=C/C=C/C(O[C@H]2O[C@H](C)[C@@H](O)[C@H](N)[C@@H]2O)CC2O[C@](O)(CC(O)C(O)CCC(O)CC(O)CC(O)CC(=O)O[C@H]1C)CC(O)C2C(=O)O (stereo partly shown) [Nystatin] | (factor 2.6) fold | – | enhances the transduction efficiency | efficient transduction enhancers | –
C[S+](C)[O-] [DMSO, Dimethyl sulfoxide] | – | – | enhances the transduction efficiency | – | 1.16
CCCCC[C@H](O)/C=C/[C@H]1[C@H](O)CC(=O)[C@@H]1C/C=C\CCCC(=O)O [Prostaglandin E2] | – | – | enhances the transduction efficiency | – | –
C[C@@H]1C/C=C/C=C/C=C/C=C/[C@H](O[C@@H]2O[C@H](C)[C@@H](O)[C@H](N)[C@@H]2O)C[C@@H]2O[C@](O)(C[C@@H](O)C[C@H]3O[C@@H]3/C=C/C(=O)O1)C[C@H](O)[C@H]2C(=O)O [Natamycin] | – | – | – | efficient transduction enhancers | –
CO[C@H]1C[C@@H]2CC[C@@H](C)[C@@](O)(O2)C(=O)C(=O)N2CCCC[C@H]2C(=O)O[C@H]([C@H](C)C[C@@H]2CC[C@@H](OCCO)[C@H](OC)C2)CC(=O)[C@H](C)/C=C(\C)[C@@H](O)[C@@H](OC)C(=O)[C@H](C)C[C@H](C)/C=C/C=C/C=C/1C [Everolimus] | (factor 13.5) fold | (factor 2.5) fold | enhances the transduction efficiency | – | –
CO[C@@H]1[C@H](N(C)C(=O)c2ccccc2)C[C@H]2O[C@]1(C)n1c3ccccc3c3c4c(c5c6ccccc6n2c5c31)C(=O)NC4 [Midostaurin] | (factor 4.2) fold | – | – | – | –
2,3-Dihydro-3-(4-hydroxy-3-methoxyphenyl)-2-(hydroxymethyl)-6-(3,5,7-trihydroxy-4-oxobenzopyran-2-yl)benzodioxin [Silibinin] | (factor 4.8) fold | – | enhances the transduction efficiency | efficient transduction enhancers | –
Nc1nc(F)nc2c1ncn2[C@@H]1O[C@H](CO)[C@@H](O)[C@@H]1O [Fludarabine] | – | – | – | efficient transduction enhancers | –
